pIC50: −log10 of the molar value.
Tested on: 855422-203-R-J1-PDC complex spheroid viability
Experiment: Anticancer human tumor 855422-203-R-J1-PDC patient-derived bladder carcinoma cell line growth inhibition [POLQ]
Details: for pIC50: curve of first compound; for viability, T/C: stronger effect = lower value
In short: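 Patient-derived tumour cells were co-cultured with HUVEC and mesenchymal stem cells as multicellular spheroids at 37 °C. They were treated with POLQ inhibitors (novobiocin, ART-558, RP6685) alone or combined with other agents. Top concentrations were at or near clinical Cmax (otherwise 10 microM; SN-38 at 1 microM), decreasing in half-log steps.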

[1] = second compound 0.0316 µM, first compound 0.0316 µM
[2] = second compound 0.0316 µM, first compound 0.1 µM
[3] = second compound 0.0316 µM, first compound 0.316 µM
[4] = second compound 0.0316 µM, first compound 1 µM
[5] = second compound 0.0316 µM, first compound 3.16 µM
[6] = second compound 0.0316 µM, first compound 10 µM
[7] = second compound 0.1 µM, first compound 0.0316 µM
[8] = second compound 0.1 µM, first compound 0.1 µM
[9] = second compound 0.1 µM, first compound 0.316 µM
[10] = second compound 0.1 µM, first compound 1 µM
[11] = second compound 0.1 µM, first compound 3.16 µM
[12] = second compound 0.1 µM, first compound 10 µM
[13] = second compound 0.316 µM, first compound 0.0316 µM
[14] = second compound 0.316 µM, first compound 0.1 µM
[15] = second compound 0.316 µM, first compound 0.316 µM
[16] = second compound 0.316 µM, first compound 1 µM
[17] = second compound 0.316 µM, first compound 3.16 µM
[18] = second compound 0.316 µM, first compound 10 µM
[19] = second compound 1 µM, first compound 0.0316 µM
[20] = second compound 1 µM, first compound 0.1 µM
[21] = second compound 1 µM, first compound 0.316 µM
[22] = second compound 1 µM, first compound 1 µM
[23] = second compound 1 µM, first compound 3.16 µM
[24] = second compound 1 µM, first compound 10 µM
[25] = second compound 3.16 µM, first compound 0.0316 µM
[26] = second compound 3.16 µM, first compound 0.1 µM
[27] = second compound 3.16 µM, first compound 0.316 µM
[28] = second compound 3.16 µM, first compound 1 µM
[29] = second compound 3.16 µM, first compound 3.16 µM
[30] = second compound 3.16 µM, first compound 10 µM
[31] = second compound 10 µM, first compound 0.0316 µM
[32] = second compound 10 µM, first compound 0.1 µM
[33] = second compound 10 µM, first compound 0.316 µM
[34] = second compound 10 µM, first compound 1 µM
[35] = second compound 10 µM, first compound 3.16 µM
[36] = second compound 10 µM, first compound 10 µM
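Further: spheroids exposed to compounds for seven days before readout.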

For `CC(=O)O[C@H]1C(=O)[C@@]2(C)[C@H]([C@H](OC(=O)c3ccccc3)[C@]3(O)C[C@H](OC(=O)[C@H](O)[C@@H](NC(=O)c4ccccc4)c4ccccc4)C(C)=C1C3(C)C)[C@]1(OC(C)=O)CO[C@@H]1C[C@@H]2O` + Nc1ccc(C#CCN(C(=O)Cc2ncc(C(F)(F)F)cc2C(F)(F)F)c2ccc(F)cc2)nn1, the pIC50 (second compound 0.0316 µM) was over 8.02, the pIC50 (second compound 0.1 µM) was over 8.02 and the pIC50 (second compound 0.316 µM) was over 8.02. It also gave a pIC50 (second compound 1 µM) of over 8.02, a pIC50 (second compound 3.16 µM) of over 8.02 and a pIC50 (second compound 10 µM) of over 8.02. For the same compound, the viability, T/C (second compound 0.0316 µM, first compound 0.00949 µM) was 9.1%, the viability, T/C (second compound 0.0316 µM, first compound 0.03 µM) was 8.18% and the viability, T/C (second compound 0.0316 µM, first compound 0.0949 µM) was 10.3%. For the same compound, the viability, T/C (second compound 0.0316 µM, first compound 0.3 µM) was 9.92%, the viability, T/C (second compound 0.0316 µM, first compound 0.949 µM) was 7.22% and the viability, T/C (second compound 0.0316 µM, first compound 3 µM) was 9.23%. It also gave a viability, T/C (second compound 0.1 µM, first compound 0.00949 µM) of 12.1%, a viability, T/C (second compound 0.1 µM, first compound 0.03 µM) of 8.86% and a viability, T/C (second compound 0.1 µM, first compound 0.0949 µM) of 8.29%. For the same compound, the viability, T/C (second compound 0.1 µM, first compound 0.3 µM) was 9.07%, the viability, T/C (second compound 0.1 µM, first compound 0.949 µM) was 6.61% and the viability, T/C (second compound 0.1 µM, first compound 3 µM) was 8.93%. The viability, T/C (second compound 0.316 µM, first compound 0.00949 µM) was 10.2%, the viability, T/C (second compound 0.316 µM, first compound 0.03 µM) was 10% and the viability, T/C (second compound 0.316 µM, first compound 0.0949 µM) was 7.73%. For the same compound, the viability, T/C (second compound 0.316 µM, first compound 0.3 µM) was 7.49%, the viability, T/C (second compound 0.316 µM, first compound 0.949 µM) was 7.31% and the viability, T/C (second compound 0.316 µM, first compound 3 µM) was 7.76%. The viability, T/C (second compound 1 µM, first compound 0.00949 µM) was 9.77%, the viability, T/C (second compound 1 µM, first compound 0.03 µM) was 10.3% and the viability, T/C (second compound 1 µM, first compound 0.0949 µM) was 7.55%. The viability, T/C (second compound 1 µM, first compound 0.3 µM) was 9.06%, the viability, T/C (second compound 1 µM, first compound 0.949 µM) was 7.76% and the viability, T/C (second compound 1 µM, first compound 3 µM) was 9.17%. It also gave a viability, T/C (second compound 3.16 µM, first compound 0.00949 µM) of 14.2%, a viability, T/C (second compound 3.16 µM, first compound 0.03 µM) of 8.33% and a viability, T/C (second compound 3.16 µM, first compound 0.0949 µM) of 9.73%. It also gave a viability, T/C (second compound 3.16 µM, first compound 0.3 µM) of 9.4%, a viability, T/C (second compound 3.16 µM, first compound 0.949 µM) of 12.7% and a viability, T/C (second compound 3.16 µM, first compound 3 µM) of 10.1%. It also gave a viability, T/C (second compound 10 µM, first compound 0.00949 µM) of 12.2%, a viability, T/C (second compound 10 µM, first compound 0.03 µM) of 10.5% and a viability, T/C (second compound 10 µM, first compound 0.0949 µM) of 11.7%. The viability, T/C (second compound 10 µM, first compound 0.3 µM) was 9.8%, the viability, T/C (second compound 10 µM, first compound 0.949 µM) was 7.89% and the viability, T/C (second compound 10 µM, first compound 3 µM) was 9.4%.
`COc1cc(C2c3cc4c(cc3C(OC3OC5COC(C)OC5C(O)C3O)C3COC(=O)C23)OCO4)cc(OC)c1O` (stereo not drawn) + Nc1ccc(C#CCN(C(=O)Cc2ncc(C(F)(F)F)cc2C(F)(F)F)c2ccc(F)cc2)nn1 was tested, and the pIC50 (second compound 0.0316 µM) was 6.28, the pIC50 (second compound 0.1 µM) was 6.32 and the pIC50 (second compound 0.316 µM) was 6.35. It also gave a pIC50 (second compound 1 µM) of 6.36, a pIC50 (second compound 3.16 µM) of 6.47 and a pIC50 (second compound 10 µM) of 6.42. For the same compound, the viability, T/C [1] was 120%, the viability, T/C [2] was 127% and the viability, T/C [3] was 78.5%. It also gave a viability, T/C [4] of 15%, a viability, T/C [5] of 10% and a viability, T/C [6] of 7.23%. It also gave a viability, T/C [7] of 108%, a viability, T/C [8] of 164% and a viability, T/C [9] of 71.5%. The viability, T/C [10] was 21%, the viability, T/C [11] was 8.67% and the viability, T/C [12] was 4.47%. The viability, T/C [13] was 94.4%, the viability, T/C [14] was 137% and the viability, T/C [15] was 66.1%. It also gave a viability, T/C [16] of 21.8%, a viability, T/C [17] of 10.4% and a viability, T/C [18] of 4.7%. The viability, T/C [19] was 92.2%, the viability, T/C [20] was 141% and the viability, T/C [21] was 64.8%. It also gave a viability, T/C [22] of 23.5%, a viability, T/C [23] of 10.1% and a viability, T/C [24] of 4.86%. The viability, T/C [25] was 99.3%, the viability, T/C [26] was 135% and the viability, T/C [27] was 52%. The viability, T/C [28] was 20.5%, the viability, T/C [29] was 10.7% and the viability, T/C [30] was 4.56%. For the same compound, the viability, T/C [31] was 105%, the viability, T/C [32] was 114% and the viability, T/C [33] was 56.5%. The viability, T/C [34] was 19.5%, the viability, T/C [35] was 11.1% and the viability, T/C [36] was 5.88%.
`COc1cccc2c1C(=O)c1c(O)c3c(c(O)c1C2=O)CC(O)(C(=O)CO)CC3OC1CC(N)C(O)C(C)O1` (stereo not drawn) + Nc1ccc(C#CCN(C(=O)Cc2ncc(C(F)(F)F)cc2C(F)(F)F)c2ccc(F)cc2)nn1 was tested, and the pIC50 (second compound 0.0316 µM) was over 7.50, the pIC50 (second compound 0.1 µM) was over 7.50 and the pIC50 (second compound 0.316 µM) was over 7.50. It also gave a pIC50 (second compound 1 µM) of over 7.50, a pIC50 (second compound 3.16 µM) of over 7.50 and a pIC50 (second compound 10 µM) of over 7.50. It also gave a viability, T/C [1] of 26.2%, a viability, T/C [2] of 12.8% and a viability, T/C [3] of 3.75%. The viability, T/C [4] was 0.9%, the viability, T/C [5] was 1.51% and the viability, T/C [6] was 4.81%. For the same compound, the viability, T/C [7] was 25.7%, the viability, T/C [8] was 12.2% and the viability, T/C [9] was 3.22%. For the same compound, the viability, T/C [10] was 0.93%, the viability, T/C [11] was 1.37% and the viability, T/C [12] was 3.69%. The viability, T/C [13] was 26%, the viability, T/C [14] was 12.8% and the viability, T/C [15] was 2.51%. It also gave a viability, T/C [16] of 0.82%, a viability, T/C [17] of 1.39% and a viability, T/C [18] of 5.31%. It also gave a viability, T/C [19] of 24.3%, a viability, T/C [20] of 11.5% and a viability, T/C [21] of 4.7%. For the same compound, the viability, T/C [22] was 0.92%, the viability, T/C [23] was 1.13% and the viability, T/C [24] was 6.67%. The viability, T/C [25] was 26.3%, the viability, T/C [26] was 12.7% and the viability, T/C [27] was 4.52%. It also gave a viability, T/C [28] of 1.14%, a viability, T/C [29] of 1.38% and a viability, T/C [30] of 4.89%. The viability, T/C [31] was 21.4%, the viability, T/C [32] was 12.1% and the viability, T/C [33] was 2.85%. It also gave a viability, T/C [34] of 2.62%, a viability, T/C [35] of 1.74% and a viability, T/C [36] of 5.86%.
`O=c1[nH]cc(F)c(=O)[nH]1` + Nc1ccc(C#CCN(C(=O)Cc2ncc(C(F)(F)F)cc2C(F)(F)F)c2ccc(F)cc2)nn1 gave a pIC50 (second compound 0.0316 µM) of 5.61, a pIC50 (second compound 0.1 µM) of 5.67 and a pIC50 (second compound 0.316 µM) of 5.52. The pIC50 (second compound 1 µM) was 5.62, the pIC50 (second compound 3.16 µM) was 5.51 and the pIC50 (second compound 10 µM) was 5.56. The viability, T/C [1] was 118%, the viability, T/C [2] was 110% and the viability, T/C [3] was 160%. For the same compound, the viability, T/C [4] was 65.3%, the viability, T/C [5] was 47.4% and the viability, T/C [6] was 43.9%. It also gave a viability, T/C [7] of 90.8%, a viability, T/C [8] of 111% and a viability, T/C [9] of 142%. It also gave a viability, T/C [10] of 66.6%, a viability, T/C [11] of 46.6% and a viability, T/C [12] of 37.1%. The viability, T/C [13] was 118%, the viability, T/C [14] was 122% and the viability, T/C [15] was 124%. The viability, T/C [16] was 63.2%, the viability, T/C [17] was 54% and the viability, T/C [18] was 44.8%. The viability, T/C [19] was 95.3%, the viability, T/C [20] was 112% and the viability, T/C [21] was 99.6%. It also gave a viability, T/C [22] of 68.5%, a viability, T/C [23] of 46.2% and a viability, T/C [24] of 40%. It also gave a viability, T/C [25] of 103%, a viability, T/C [26] of 107% and a viability, T/C [27] of 104%. It also gave a viability, T/C [28] of 60.6%, a viability, T/C [29] of 53.1% and a viability, T/C [30] of 46.2%. For the same compound, the viability, T/C [31] was 96.9%, the viability, T/C [32] was 105% and the viability, T/C [33] was 99.9%. It also gave a viability, T/C [34] of 66.8%, a viability, T/C [35] of 53.1% and a viability, T/C [36] of 40.8%.

Reference: PubChem BioAssay AID1963838 (Molecular Pharmacology Branch, DTP, NCI, 2024)
